Data on 87 molecules can be found in PubChem BioAssay AID1645868 (Buhrlage Lab, Dana-Farber Cancer Institute and Novartis …, 2021).

Active and inactive are the calls of the source.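 Rule for the calls: active = maximal percent inhibition of the deubiquitinase OTUD3 of at least 30% across the tested doses; inactive = the rest.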

In the assay the target is OTU domain-containing protein 3 (Homo sapiens) (UniProt Q5T2D3). Kind of assay: Validation of screening hits, potency titration, in vitro enzymatic, OTU domain-containing protein 3 DUB inhibitors (AID 1645868). Particulars: purified OTUD3, ubiquitin-rhodamine cleavage fluorescence, 2 h.
Chain of OTU domain-containing protein 3 (Homo sapiens) (Q5T2D3 whole entry, looked up, the tested form may be a part): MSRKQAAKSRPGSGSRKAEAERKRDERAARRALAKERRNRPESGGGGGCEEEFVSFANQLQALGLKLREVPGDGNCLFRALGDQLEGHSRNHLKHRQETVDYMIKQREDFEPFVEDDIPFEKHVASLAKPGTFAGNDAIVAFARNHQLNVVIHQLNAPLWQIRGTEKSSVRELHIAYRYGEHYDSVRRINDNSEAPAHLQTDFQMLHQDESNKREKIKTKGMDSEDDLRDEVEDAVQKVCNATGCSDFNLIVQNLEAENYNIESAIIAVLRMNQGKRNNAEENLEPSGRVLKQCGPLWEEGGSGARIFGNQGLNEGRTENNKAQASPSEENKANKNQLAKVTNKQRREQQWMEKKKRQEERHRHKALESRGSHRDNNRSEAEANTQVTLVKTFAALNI

As for `Cc1c(S(=O)(=O)NC2CCCCNC2=O)sc2ccc(Cl)cc12` (configuration not stated), the IC50 (in general, the midpoint of a concentration-inhibition curve) is > 50 µM (inactive).

Consider `Clc1cc2nc(N3CCN(c4ccccn4)CC3)c3nncn3c2cc1Cl`, for which the IC50 was 4.78 µM.

On to `Nc1ccc(F)c(NS(=O)(=O)c2ccccc2)c1`, for which the IC50 was > 50 µM (inactive).

As for `O=C(COC(=O)CCc1ccc(S(=O)(=O)N2CCOCC2)cc1)Nc1ccc2c(c1)OCCO2`, the IC50 was > 50 µM (inactive).

For `N#Cc1ccc(NC(=O)Nc2cccn(Cc3ccccc3Br)c2=O)cc1`, the IC50 was > 50 µM (inactive).

Regarding `COc1ccc(C)cc1NC(=O)C1CC(=O)Nc2nc3ccccc3n21` (configuration not stated), the half-maximal inhibitory concentration (IC50) was 40.2 µM.

For `CCn1c(=O)c(=O)[nH]c2cc(C(=O)Nc3cccc(-c4csc(C)n4)c3)ccc21`, the IC50 was > 50 µM (inactive).

With `O=C(Cn1c(=O)n(-c2ccccc2)c(=O)c2ccc(C(=O)NCc3ccc4c(c3)OCO4)cc21)NCCC1=CCCCC1`, the IC50 is 34.4 µM.

`Cc1nn(-c2ccc(Cl)cc2)c2[nH]c(=O)c(CNCC3CCCO3)cc12` (configuration not stated): the IC50 is > 50 µM (inactive).

`CCNc1oc(-c2ccc(S(=O)(=O)N3CCCCC3)cc2)nc1C#N`: the IC50 was > 50 µM (inactive).

Take `Cc1ccc2nc(-c3cccc(-c4nc5ccc(C)cc5[nH]4)n3)[nH]c2c1`: the IC50 was > 50 µM (inactive).

As for `CC(=O)c1ccc(N2C(=O)N(Cc3cccc([N+](=O)[O-])c3)c3ccccc3S2(=O)=O)cc1`, the IC50 is > 50 µM (inactive).

As for `COc1cc2c(cc1OC)C(COc1ccccc1OC)N(C(=O)c1ccc3ccccc3c1)CC2` (configuration not stated), the IC50 was > 50 µM (inactive).

On to `Cc1cccc(NC(=O)Nc2ccc(C)n(CC(=O)Nc3ccccc3)c2=O)c1`, for which the IC50 is > 50 µM (inactive).

`CCc1nc2c(NC(=O)Nc3cccc(C(=O)OC)c3)cccn2n1`: the IC50 was > 50 µM (inactive).

Turning to `COC(=O)c1cc2c(ccn2C)n1CC(=O)NC1CC1`, the IC50 was > 50 µM (inactive).

In the case of `CCOc1ccccc1NC(=O)COC(=O)C(c1ccccc1)c1ccccc1`, the IC50 was > 50 µM (inactive).

Turning to `CN(C)Cc1ccc(C(=O)Nc2ccc(-c3nccs3)cc2)cc1`, the IC50 was > 50 µM (inactive).

For `O=C(CSc1nncc2ccccc12)Nc1ccc2c(c1)OCO2`, the IC50 was > 50 µM (inactive).

`O=C(Nc1ccc(-c2cn3ccccc3n2)cc1)C1C=C2C=C(Br)C=CC2OC1=O` (configuration not stated): the IC50 is > 50 µM (inactive).

On to `Oc1sc(C=Nc2cc(Cl)ccc2Cl)c2ccccc12`, for which the IC50 was > 50 µM (inactive).

As for `CC1=C(c2ccc(F)cc2)S(=O)(=O)N=C1Nc1ccc(Cl)cc1`, the IC50 is > 50 µM (inactive).

With `COc1ccc(CCC(=O)Nc2ccc3c(c2)Sc2ncccc2C(=O)N3C)cc1`, the IC50 was > 50 µM (inactive).

Regarding `COc1cc(-c2cc(C(=O)Nc3cc(C)[nH]n3)c3ccccc3n2)cc(OC)c1OC`, the IC50 was > 50 µM (inactive).

Turning to `CCc1ccc(-n2c(=O)c3ccccc3n(CC(=O)NCCC3=CCCCC3)c2=O)cc1`, the IC50 is 21.3 µM.

Turning to `Cc1ccccc1NC(=O)c1cc(S(=O)(=O)N2CCCCCC2)ccc1Cl`, the IC50 is 29.7 µM.

With `Cc1ccc2cc(CCNC(=O)c3cccc(Br)c3)c(=O)[nH]c2c1`, the IC50 is > 50 µM (inactive).

For the molecule `O=C(Nc1ccc2c(c1)OCCO2)C1CCN(C(=O)c2cc(-c3cccnc3)n[nH]2)CC1`, the IC50 was > 50 µM (inactive).

`O=c1[nH]c(-c2ccccn2)nc2c1CCN(Cc1cnn(-c3ccccc3)c1)C2`: the IC50 was > 50 µM (inactive).

Consider `COCCNC(=O)c1ccn(-c2ccc3ccc(-c4ccncc4)cn23)n1`, for which the IC50 was > 50 µM (inactive).

Consider `Fc1ccccc1N1CCN(c2ncc3c(n2)CCN(Cc2ccccn2)C3)CC1`, for which the IC50 was > 50 µM (inactive).

Take `N#Cc1cccc(S(=O)(=O)N2CCc3nc4ccccc4n3CC2)c1`: the IC50 was 28.3 µM.

Regarding `O=c1ncn(Cc2ccc3c(c2)OCO3)cc1-c1ncc(C(F)(F)F)cc1Cl`, the IC50 is > 50 µM (inactive).

Consider `COc1ccc(C2/C(=C(\O)c3ccccc3)C(=O)C(=O)N2c2nc3ccc(F)cc3s2)cc1` (configuration not stated), for which the IC50 is 33.8 µM.

As to `Cc1nn(C)c2c1[C@@H](c1ccc(F)cc1)[C@H](NC(=O)c1ccccc1)C(=O)N2`, the IC50 is > 50 µM (inactive).

With `COc1ccc2[nH]cc(S(=O)(=O)c3ccc(C)c(F)c3)c(=O)c2c1`, the IC50 is 44.5 µM.

As for `CC(C)CC(NC(=O)c1ccc(Cl)cc1Cl)c1nc2ccccc2[nH]1` (configuration not stated), the IC50 is > 50 µM (inactive).

On to `Cc1nc(-c2noc(-c3ccncc3)n2)cn1CC(=O)N1CCN(c2ccc(F)cc2)CC1`, for which the IC50 was > 50 µM (inactive).

For `Cc1cc(=O)n(CC(=O)Nc2ccccc2C)c(Nc2ccc(F)cc2)n1`, the IC50 is 23.3 µM.

`CNc1nc2c(c(=O)n1Cc1ccccc1)CN(C(=O)c1ccc(CN)cc1)CC2`: the IC50 is > 50 µM (inactive).

Regarding `Cc1ccc(Cn2nnc(-c3noc(-c4ccc[nH]4)n3)c2C)cc1`, the IC50 was > 50 µM (inactive).

For the molecule `CS(=O)(=O)N1CCc2cc(C(=O)Nc3ccc(Cc4ccncc4)cc3)ccc21`, the IC50 was > 50 µM (inactive).

With `COc1ccc(CCn2cnc3c4ccccc4n(C)c3c2=O)cc1OC`, the IC50 is > 50 µM (inactive).

Take `CNC(=O)c1cc2nc(N(C)C)n(-c3ccccc3)c2s1`: the IC50 was > 50 µM (inactive).

On to `CCc1cccc(CC)c1NC(=O)COC(=O)c1cc2cccc(OC)c2oc1=O`, for which the IC50 is 27.6 µM.

With `O=C(Nc1nc2c(s1)COCC2)c1cc(-c2ccco2)[nH]n1`, the IC50 was > 50 µM (inactive).

`Cc1ccc(-c2nc(Cn3nnc(-c4nc(-c5ccccn5)no4)c3C)c(C)o2)cc1`: the IC50 is > 50 µM (inactive).

As to `CCCc1nc2sc3c(NCCN4CCOCC4)ncnc3c2c2c1CCC2`, the IC50 was > 50 µM (inactive).

Consider `Cc1nnc(C(=O)Nc2ccc(C(=O)NCc3ccccc3C)cc2)s1`, for which the IC50 was 28.5 µM.

With `O=C(NC(Cc1ccccc1)c1nc2ccccc2[nH]1)c1ccccn1` (configuration not stated), the IC50 was > 50 µM (inactive).

As for `CCc1cc2c(=O)[nH]c(Cc3ccc(OC)cc3)nc2s1`, the IC50 is 33.4 µM.

In the case of `Cc1ccc2c(c1)c(=O)c(C(=O)c1ccc(F)cc1)cn2CC(=O)Nc1ccc2c(c1)OCCO2`, the IC50 was > 50 µM (inactive).

Take `Cc1ccc(C(C)C)cc1OCCOCCN1CCNCC1`: the IC50 is > 50 µM (inactive).

As for `CC1CCCCN1CCCNC(=O)c1ccc(N2CCc3ccccc32)s1` (configuration not stated), the IC50 was > 50 µM (inactive).

Consider `CCCCN(C)C(=O)c1cc2c(=O)n3cccc(C)c3nc2n1Cc1ccccc1`, for which the IC50 was > 50 µM (inactive).

In the case of `Cc1nn(CC(=O)NCc2ccccc2F)c2ccccc12`, the IC50 was > 50 µM (inactive).

As to `Cc1ccccc1NC(=O)c1ccc(N2CCCCC2)nn1`, the IC50 was > 50 µM (inactive).

For `O=S(=O)(Nc1ccc2oc(-c3ccncc3)nc2c1)c1ccccc1`, the IC50 was > 50 µM (inactive).

Take `CC(=O)c1cccc(NC(=O)c2ccc(CN(c3ccc(C)c(C)c3)S(C)(=O)=O)cc2)c1`: the IC50 was > 50 µM (inactive).

Turning to `O=C(Nc1ccc2ccccc2n1)c1ccc(Cl)cc1`, the IC50 is 28.8 µM.

On to `COc1cccc(C(=O)NCc2[nH]nc3ccccc23)c1`, for which the IC50 is > 50 µM (inactive).

As to `CCNc1nc(SCC(C)=O)nc2sc3c(c12)CCC(C)C3` (configuration not stated), the IC50 was > 50 µM (inactive).

In the case of `O=C(Nc1cc(F)c2nc(N3CCOCC3)ccc2c1)c1ccc(Br)o1`, the IC50 was > 50 µM (inactive).

`CCn1ccc2c(cc(C(=O)Nc3ccccc3F)n2C)c1=O`: the IC50 is > 50 µM (inactive).

Turning to `Cc1cccc(C(=O)N2CCc3cc(-c4nc(NC(=O)CN5CCc6ccccc6C5)sc4C)ccc32)c1`, the IC50 was > 50 µM (inactive).

As to `O=C1N(Cc2ccc(F)cc2)CCN1c1ccc(C(F)(F)F)cn1`, the IC50 is > 50 µM (inactive).

For the molecule `COc1cc(C2SCC(=O)Nc3c2c(-c2ccccc2)nn3-c2ccccc2)cc(OC)c1OC` (configuration not stated), the IC50 is > 50 µM (inactive).

In the case of `COCCn1c(=S)[nH]c2cc(C(=O)NCCSCc3ccccc3)ccc2c1=O`, the IC50 was > 50 µM (inactive).

Regarding `Oc1ccc(-c2nc3ccc(Cl)cn3c2NC2CCCCC2)cc1`, the 50% inhibitory concentration (IC50) is 29.7 µM.

Regarding `c1cnc(-c2n[nH]c(C3CCN(C4CCNC4)CC3)n2)cn1` (configuration not stated), the IC50 was > 50 µM (inactive).

As for `Cc1ccc(C(=O)Nc2cc3c4c(c2)CC(=O)N4CCC3)cc1`, the IC50 was > 50 µM (inactive).

With `CC(C)N1CC2CN(Cc3ccc(Cl)cc3)CCN2Cc2ccccc21` (configuration not stated), the IC50 is > 50 µM (inactive).

Consider `O=c1oc2ccccc2c2nn(-c3ccccn3)cc12`, for which the IC50 is > 50 µM (inactive).

Turning to `O=C(Nc1ccc(N2CCOCC2)cc1)c1ccc(-c2ccc(N3CCCC3)nn2)cc1`, the IC50 was > 50 µM (inactive).

Regarding `COc1cccc(CN2CCc3nc4nc(C)ccc4cc3C2)c1`, the IC50 was > 50 µM (inactive).

Regarding `CCC(C)NC(=O)Cn1c(=O)n(-c2ccccc2)c(=O)c2ccc(C(=O)NCc3ccco3)cc21` (configuration not stated), the IC50 was 35.4 µM.

With `CCCC(=O)Nc1ccc(SCc2nnc(-c3ccccc3)o2)cc1`, the IC50 was > 50 µM (inactive).

Take `CCn1c(SCc2nc(N)c3ccccc3n2)nc2ccccc21`: the IC50 is > 50 µM (inactive).

In the case of `COc1ccccc1-c1nc(-c2cn(-c3ccc(C)cc3)nn2)no1`, the IC50 is > 50 µM (inactive).

Turning to `Cc1cc(N2CCC(NC(=O)NCc3ccc(F)cc3)C2=O)ccc1F` (configuration not stated), the IC50 is 30.4 µM.

As for `COc1ccc(C(=O)Nc2n[nH]c(C)c2-c2cccc(C)c2)c(OC)c1`, the IC50 was 28.7 µM.

For the molecule `Cc1ccccc1C(=O)Nc1ccc(Cc2ccc(NC(=O)c3ccccc3C)c(O)c2)cc1O`, the IC50 is > 50 µM (inactive).

Turning to `O=C(CNc1ccc(F)c(Cl)c1)Nc1ccc2c(c1)OCCO2`, the IC50 is > 50 µM (inactive).

For `COc1ccc(C2CC(c3ccc(C)cc3)N(C(=O)C3CC3)c3ncnn32)cc1` (configuration not stated), the IC50 is > 50 µM (inactive).

`O=C(/C=C/c1cnc2ccccc2c1)NCc1ccccc1`: the IC50 is > 50 µM (inactive).

As for `Cc1c(-c2ccccc2)oc2c(C(=O)OCC(=O)Nc3ccccc3F)cccc2c1=O`, the IC50 was > 50 µM (inactive).

Turning to `N#Cc1ccc(NC(=O)c2ccc(S(=O)(=O)N3CCCCC3)cc2)cc1`, the IC50 was > 50 µM (inactive).
